According to US7442501B2, “SQV nucleic acids and polypeptides” (Massachusetts Institute of Technology, priority 2002, dated 2008):

What was measured:
SQV-4 = target: T1, SQV-4 (Caenorhabditis elegans, UniProt Q19905, T2A); format: biochemical, C. elegans; details: UDP-glucose replaced; 100 μM NAD+ and 250 μM nucleotide sugar
T1 construct: were used for PCR-amplification of the sqv-4 ORF, and the resulting product was digested with NcoI and XhoI and cloned into pET21d; made in house; host or cells: E. coli BL21 pLysS, pET21d; soluble fraction used without purification
T1 sequence (Q19905 whole entry T2A): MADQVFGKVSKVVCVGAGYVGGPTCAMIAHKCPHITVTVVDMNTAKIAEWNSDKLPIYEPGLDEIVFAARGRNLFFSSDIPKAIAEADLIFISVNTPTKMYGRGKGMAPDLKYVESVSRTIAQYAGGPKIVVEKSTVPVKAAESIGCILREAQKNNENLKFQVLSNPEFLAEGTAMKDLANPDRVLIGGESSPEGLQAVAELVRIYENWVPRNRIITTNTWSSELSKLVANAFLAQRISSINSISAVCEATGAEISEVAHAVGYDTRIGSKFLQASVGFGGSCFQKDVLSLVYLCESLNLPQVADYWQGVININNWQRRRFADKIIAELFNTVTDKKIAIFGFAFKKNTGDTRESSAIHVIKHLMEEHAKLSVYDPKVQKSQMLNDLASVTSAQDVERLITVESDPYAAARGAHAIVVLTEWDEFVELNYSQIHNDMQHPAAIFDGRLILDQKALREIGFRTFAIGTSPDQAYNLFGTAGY
Description: The sqv-4 coding sequences corresponding to the wild-type, n2827, and n2840 alleles were cloned into the pET21d E. coli expression vector and transformed into BL21 pLysS. The oligonucleotides 5′-[…]-3′ (SEQ ID NO:53) and 5′-[…]-3′ (SEQ ID NO:54) were used to generate R353H n2827 and T4101 n2840 mutations, respectively, by site-directed mutagenesis. The oligonucleotides 5′-[…]-3′ (SEQ ID NO:55) and 5′-[…]-3′ (SEQ ID NO:56) were used for PCR-amplification of the sqv-4 ORF, and the resulting product was digested with NcoI and XhoI and cloned into pET21d. All three proteins have a threonine to alanine mutation in the second amino acid because of the addition of an NcoI site at the 5′ end. SQV-4 expression was induced by incubation with 1 mM IPTG for three to four hours at 37° C. E. coli were pelleted and resuspended in 50 mM Tris-HCl pH 7.5, 1 mM DTT, 1 mM EDTA, 1 mM PMSF, 2 μg/ml pepstatin A, and aprotinin and lysed using a French pressure cell. The soluble fraction was separated from the insoluble inclusion bodies by centrifugation at 12,000 g for 20 minutes.
All assays were performed at room temperature (20 to 22° C.) in 50 mM Tris-HCl, 2 mM dithiothrietol (DTT), pH 8.7. The initial velocity of the reaction was determined from time points during the first 60 seconds after addition of the SQV-4 extract.

chondroitin synthase [1] = target: T2, chondroitin synthase (Caenorhabditis elegans, UniProt Q7Z1Z1); experiment: GlcAT (glucuronyl transferase) assay of chondroitin synthase activity in worm protein extracts; format: biochemical
T2 construct: wild-type (N2) animals were used to prepare worm protein extracts; from tissue; host or cells: whole C. elegans hermaphrodites (young adults), sonicated protein extract
T2 sequence (Q7Z1Z1 1-736): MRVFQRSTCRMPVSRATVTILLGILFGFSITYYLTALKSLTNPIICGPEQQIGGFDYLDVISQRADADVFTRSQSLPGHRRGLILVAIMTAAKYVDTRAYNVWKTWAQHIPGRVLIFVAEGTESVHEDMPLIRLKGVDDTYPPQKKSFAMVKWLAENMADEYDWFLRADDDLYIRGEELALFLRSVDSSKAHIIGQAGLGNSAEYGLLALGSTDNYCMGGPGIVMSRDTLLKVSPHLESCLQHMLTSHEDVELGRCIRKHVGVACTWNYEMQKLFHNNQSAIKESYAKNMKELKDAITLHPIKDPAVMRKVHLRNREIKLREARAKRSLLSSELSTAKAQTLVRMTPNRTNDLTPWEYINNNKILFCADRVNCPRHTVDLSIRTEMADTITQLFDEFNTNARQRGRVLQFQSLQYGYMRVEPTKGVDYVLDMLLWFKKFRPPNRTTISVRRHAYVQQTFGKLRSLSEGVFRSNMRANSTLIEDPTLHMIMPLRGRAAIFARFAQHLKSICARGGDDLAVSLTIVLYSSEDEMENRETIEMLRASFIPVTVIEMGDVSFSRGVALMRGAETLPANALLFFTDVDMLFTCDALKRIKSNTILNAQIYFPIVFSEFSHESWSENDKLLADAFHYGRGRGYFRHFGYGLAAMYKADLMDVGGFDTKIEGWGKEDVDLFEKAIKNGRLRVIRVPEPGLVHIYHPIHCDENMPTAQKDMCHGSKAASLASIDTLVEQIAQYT
Description: (§1) sqv-5(n3611), sqv-5(n3611)/hT2, and wild-type (N2) animals were used to prepare worm protein extracts. These extracts were tested for chondroitin synthase activity using standard methods, for example, in DeAngelis et al., (J. Biol. Chem. 27:24124-24129, 2000).
(§2) A desulfated chondroitin acceptor was used for the GalNAcT (N-acetylgalactosamyl transferase) assay. Desulfated and β-glucuronidase-treated chondroitin acceptor was used for the GlcAT (glucuronyl transferase) assay.
(§3) The enzymatic activity of SQV-5 was assayed as follows. SQV-5(n3611), sqv-5(n3611)/hT2, and wild-type N2 hermaphrodites were picked as L4 larvae by visual examination of the vulva using a dissecting microscope. The worms staged were allowed to grow for an additional twenty-three to twenty-seven hours at 22° C., re-examined, then transferred to 1.7-ml plastic tubes containing sterile water. The staged worms were washed once with water and twice with 50 mM Tris, pH 7.5, then frozen in a 50 μl volume using liquid nitrogen, and stored at −70° C.
(§4) Worm extracts were assayed for GIcAT glucoronosyltransferase activity by combining 1.3×10^5 cpm UDP-^3H-glucuronic acid donor (NEN), 6 μg β-glucuronidase-treated chondroitin acceptor, and 2.7 μg worm extract in a 25 μl reaction volume containing 0.05% Triton X-100, 10 mM MnCl2, and 100 μM ATP, pH 6.5. GalNAcT activity was detected by combining 1.3 to 3×10^5 cpm UDP-^3H-GalNAc donor (NEN), 12 μg chondroitin acceptor, and 6.7 μg worm extract in a 25 μl reaction volume containing 0.05% Triton X-100 and 10 mM MnCl2, pH 6.5. […] Pelleted material was resuspended in water and counted by liquid scintillation.
(§5) The chondroitin acceptor used was prepared as follows. […] Uronic acid concentration of both preparations was determined by the Carbazole method (Bitter, et al., Anal. Biochem. 4:330-334, 1962).

chondroitin synthase [2] = experiment: as above; format: biochemical; details: extract genotype sqv-5/sqv-5 (sqv-5(n3611))
Description: as §1, §2, §3, §4, §5

**Q.** Which “NAD+ reduction” value (SQV-4) does the source give for `O=C(O)[C@H]1O[C@H](OP(=O)(O)OP(=O)(O)OC[C@H]2O[C@@H](n3ccc(=O)[nH]c3=O)[C@H](O)[C@@H]2O)[C@H](O)[C@@H](O)[C@@H]1O` [UDP-glucuronic acid] here?
**A.** undetectable

**Q.** And the CPM (chondroitin synthase [1]; extract genotype +/+ (wild-type))?
**A.** 1820 CPM

**Q.** And the CPM (chondroitin synthase [1]; extract genotype +/sqv-5 (sqv-5(n3611)/hT2))?
**A.** 1369 CPM

**Q.** And the CPM (chondroitin synthase [2])?
**A.** 109 CPM
